# Laboratory results taken from PubChem BioAssay AID270 (DTP/NCI, 2004).
# Several values for one entry are separate records, joined by “and”; a condition that tells them apart may be missing. Equal entries are not always repeated. Inconclusive results are not listed.
# Tested on: BDF1 mice, s.c. Lewis lung carcinoma, T/C %
# Experiment: NCI In Vivo Anticancer Drug Screen. Data for tumor model Lewis Lung Carcinoma (subcutaneous) in B6D2F1 (BDF1) mice
# Method: The antitumor activity of compounds was measured in mice bearing transplantable tumors. Survival or tumor size were measured and the results are expressed as the measurement made in the treated group (T) divided by the measurement made in the vehicle treated control group (C). The tumor model used in this assay is Lewis Lung Carcinoma (subcutaneous) in B6D2F1 (BDF1) mice
# [1] = endpoint: median survival time, dose: 12.5 mg/kg/injection, schedule: Q01DX009 (ip), vehicle: saline, higher = longer survival
structure (smiles),measurement,setting,value
O=C(O)CC(NC(=O)CP(=O)(O)O)C(=O)O (configuration not stated),T/C,[1],120 % of control and 121 % of control
same,T/C,"endpoint: median survival time, dose: 17.1 mg/kg/injection, schedule: Q01DX004 (ip), vehicle: saline, higher = longer survival",120 % of control
same,T/C,"endpoint: median survival time, dose: 18.8 mg/kg/injection, schedule: Q01DX004 (ip), vehicle: saline, higher = longer survival",124 % of control
same,T/C,"endpoint: median survival time, dose: 23.3 mg/kg/injection, schedule: Q01DX009 (ip), vehicle: saline, higher = longer survival",121 % of control
same,T/C,"endpoint: median survival time, dose: 25.0 mg/kg/injection, schedule: Q01DX004 (ip), vehicle: saline, higher = longer survival",226 % of control
same,T/C,"endpoint: median survival time, dose: 34.1 mg/kg/injection, schedule: Q01DX004 (ip), vehicle: saline, higher = longer survival",178 % of control
same,T/C,"endpoint: median survival time, dose: 37.5 mg/kg/injection, schedule: Q01DX004 (ip), vehicle: saline, higher = longer survival",120 % of control
same,T/C,"endpoint: median survival time, dose: 38.9 mg/kg/injection, schedule: Q01DX004 (ip), vehicle: saline, higher = longer survival",123 % of control
same,T/C,"endpoint: median survival time, dose: 38.9 mg/kg/injection, schedule: Q01DX009 (oral), vehicle: saline, higher = longer survival",100 % of control
same,T/C,"endpoint: median survival time, dose: 50.0 mg/kg/injection, schedule: Q01DX004 (ip), vehicle: saline, higher = longer survival",225 % of control
same,T/C,"endpoint: median survival time, dose: 50.0 mg/kg/injection, schedule: Q01DX005 (ip), vehicle: saline, higher = longer survival",95 % of control
same,T/C,"endpoint: median survival time, dose: 64.0 mg/kg/injection, schedule: Q01DX004 (ip), vehicle: saline, higher = longer survival",108 % of control
same,T/C,"endpoint: median survival time, dose: 64.8 mg/kg/injection, schedule: Q01DX004 (ip), vehicle: saline, higher = longer survival",175 % of control and 197 % of control
same,T/C,"endpoint: median survival time, dose: 64.8 mg/kg/injection, schedule: Q01DX009 (ip), vehicle: saline, higher = longer survival",167 % of control
same,T/C,"endpoint: median survival time, dose: 64.8 mg/kg/injection, schedule: Q01DX009 (oral), vehicle: saline, higher = longer survival",103 % of control
same,T/C,"endpoint: median survival time, dose: 68.3 mg/kg/injection, schedule: Q01DX004 (ip), vehicle: saline, higher = longer survival",247 % of control
same,T/C,"endpoint: median survival time, dose: 68.3 mg/kg/injection, schedule: Q01DX004 (ip), vehicle: suspension in saline, higher = longer survival",112 % of control
same,T/C,"endpoint: median survival time, dose: 70.0 mg/kg/injection, schedule: Q01DX009 (oral), vehicle: saline, higher = longer survival",122 % of control
same,T/C,"endpoint: median survival time, dose: 75.0 mg/kg/injection, schedule: Q01DX004 (ip), vehicle: saline, higher = longer survival",247 % of control
same,T/C,"endpoint: median survival time, dose: 100.0 mg/kg/injection, schedule: Q01DX004 (ip), vehicle: saline, higher = longer survival",226 % of control
same,T/C,"endpoint: median survival time, dose: 108.0 mg/kg/injection, schedule: Q01DX004 (ip), vehicle: saline, higher = longer survival",197 % of control and 299 % of control
same,T/C,"endpoint: median survival time, dose: 108.0 mg/kg/injection, schedule: Q01DX009 (ip), vehicle: saline, higher = longer survival",222 % of control
same,T/C,"endpoint: median survival time, dose: 108.0 mg/kg/injection, schedule: Q01DX009 (oral), vehicle: saline, higher = longer survival",107 % of control
same,T/C,"endpoint: median survival time, dose: 108.0 mg/kg/injection, schedule: Q04DX004 (ip), vehicle: saline, higher = longer survival",118 % of control
same,T/C,"endpoint: median survival time, dose: 110.0 mg/kg/injection, schedule: Q01DX009 (oral), vehicle: saline, higher = longer survival",122 % of control
same,T/C,"endpoint: median survival time, dose: 116.0 mg/kg/injection, schedule: Q01DX009 (ip), vehicle: saline, higher = longer survival",181 % of control
same,T/C,"endpoint: median survival time, dose: 125.0 mg/kg/injection, schedule: Q01DX009 (ip), vehicle: saline, higher = longer survival",176 % of control and 194 % of control
same,T/C,"endpoint: median survival time, dose: 133.0 mg/kg/injection, schedule: Q01DX007 (other), vehicle: saline, higher = longer survival",206 % of control
same,T/C,"endpoint: median survival time, dose: 133.0 mg/kg/injection, schedule: Q01DX007 (sc), vehicle: saline, higher = longer survival",206 % of control
same,T/C,"endpoint: median survival time, dose: 136.0 mg/kg/injection, schedule: Q01DX004 (ip), vehicle: suspension in saline, higher = longer survival",204 % of control
same,T/C,"endpoint: median survival time, dose: 136.5 mg/kg/injection, schedule: Q01DX004 (ip), vehicle: saline, higher = longer survival",248 % of control
same,T/C,"endpoint: median survival time, dose: 140.0 mg/kg/injection, schedule: Q01DX009 (ip), vehicle: saline, higher = longer survival",166 % of control
same,T/C,"endpoint: median survival time, dose: 150.0 mg/kg/injection, schedule: Q01DX004 (ip), vehicle: saline, higher = longer survival",248 % of control
same,T/C,"endpoint: median survival time, dose: 150.0 mg/kg/injection, schedule: Q01DX009 (ip), vehicle: saline, higher = longer survival",186 % of control
same,T/C,"endpoint: median survival time, dose: 160.0 mg/kg/injection, schedule: Q01DX009 (oral), vehicle: saline, higher = longer survival",119 % of control
same,T/C,"endpoint: median survival time, dose: 167.0 mg/kg/injection, schedule: Q01DX010 (ip), vehicle: saline, higher = longer survival",152 % of control
same,T/C,"endpoint: median survival time, dose: 175.0 mg/kg/injection, schedule: Q01DX009 (ip), vehicle: saline, higher = longer survival",163 % of control
same,T/C,"endpoint: median survival time, dose: 178.0 mg/kg/injection, schedule: Q01DX009 (ip), vehicle: saline, higher = longer survival",178 % of control and 237 % of control
same,T/C,"endpoint: median survival time, dose: 180.0 mg/kg/injection, schedule: Q01DX009 (ip), vehicle: saline, higher = longer survival",159 % of control and 222 % of control
same,T/C,"endpoint: median survival time, dose: 180.0 mg/kg/injection, schedule: Q01DX009 (oral), vehicle: saline, higher = longer survival",102 % of control
same,T/C,"endpoint: median survival time, dose: 180.0 mg/kg/injection, schedule: Q04DX004 (ip), vehicle: saline, higher = longer survival",178 % of control
same,T/C,"endpoint: median survival time, dose: 200.0 mg/kg/injection, schedule: Q01DX004 (ip), vehicle: saline, higher = longer survival",226 % of control
same,T/C,"endpoint: median survival time, dose: 200.0 mg/kg/injection, schedule: Q01DX005 (ip), vehicle: saline, higher = longer survival",115 % of control
same,T/C,"endpoint: median survival time, dose: 200.0 mg/kg/injection, schedule: Q01DX007 (other), vehicle: saline, higher = longer survival",206 % of control
same,T/C,"endpoint: median survival time, dose: 200.0 mg/kg/injection, schedule: Q01DX007 (sc), vehicle: saline, higher = longer survival",206 % of control
same,T/C,"endpoint: median survival time, dose: 200.0 mg/kg/injection, schedule: Q01DX009 (ip), vehicle: saline, higher = longer survival",225 % of control
same,T/C,"endpoint: median survival time, dose: 240.0 mg/kg/injection, schedule: Q04DX003 (ip), vehicle: saline, higher = longer survival",150 % of control
same,T/C,"endpoint: median survival time, dose: 250.0 mg/kg/injection, schedule: Q01DX010 (ip), vehicle: saline, higher = longer survival",158 % of control
same,T/C,"endpoint: median survival time, dose: 265.0 mg/kg/injection, schedule: Q01DX009 (ip), vehicle: saline, higher = longer survival",195 % of control
same,T/C,"endpoint: median survival time, dose: 273.0 mg/kg/injection, schedule: Q01DX004 (ip), vehicle: saline, higher = longer survival",195 % of control
same,T/C,"endpoint: median survival time, dose: 273.0 mg/kg/injection, schedule: Q01DX004 (ip), vehicle: suspension in saline, higher = longer survival",177 % of control
same,T/C,"endpoint: median survival time, dose: 300.0 mg/kg/injection, schedule: Q01DX007 (sc), vehicle: saline, higher = longer survival",198 % of control
same,T/C,"endpoint: median survival time, dose: 300.0 mg/kg/injection, schedule: Q04DX004 (ip), vehicle: saline, higher = longer survival",169 % of control
same,T/C,"endpoint: median survival time, dose: 343.0 mg/kg/injection, schedule: Q04DX003 (ip), vehicle: saline, higher = longer survival",153 % of control and 186 % of control (2×)
same,T/C,"endpoint: median survival time, dose: 375.0 mg/kg/injection, schedule: Q01DX010 (ip), vehicle: saline, higher = longer survival",95 % of control
same,T/C,"endpoint: median survival time, dose: 400.0 mg/kg/injection, schedule: Q01DX004 (ip), vehicle: saline, higher = longer survival",224 % of control
same,T/C,"endpoint: median survival time, dose: 490.0 mg/kg/injection, schedule: Q04DX003 (ip), vehicle: saline, higher = longer survival",150 % of control and 186 % of control and 193 % of control
same,T/C,"endpoint: median survival time, dose: 500.0 mg/kg/injection, schedule: Q04DX004 (ip), vehicle: saline, higher = longer survival",176 % of control
same,T/C,"endpoint: median survival time, dose: 833.0 mg/kg/injection, schedule: Q04DX004 (ip), vehicle: saline, higher = longer survival",64 % of control
same,T/C,"endpoint: median survival time, dose: 50.0 ml/mouse/injection, schedule: Q01DX005 (ip), vehicle: saline, higher = longer survival",94 % of control
same,T/C,"endpoint: median survival time, dose: 200.0 ml/mouse/injection, schedule: Q01DX005 (ip), vehicle: saline, higher = longer survival",117 % of control
COc1cc(OC)c(OC)cc1/C=C/c1cc[n+](C)c2ccccc12,T/C,"endpoint: median survival time, dose: 6.25 mg/kg/injection, schedule: Q01DX009 (ip), vehicle: saline, higher = longer survival",97 % of control
same,T/C,[1],97 % of control
same,T/C,"endpoint: median survival time, dose: 25.0 mg/kg/injection, schedule: Q01DX009 (ip), vehicle: saline, higher = longer survival",111 % of control
S=C(N=Nc1ccccc1)NNc1ccccc1,T/C,"endpoint: mean tumor weight, dose: 45.0 mg/kg/injection, schedule: Q01DX011 (ip), vehicle: carboxymethylcellulose (CMC), higher = larger tumour",60 % of control
C[C@H]1CC[C@@]2(NC1)O[C@H]1C[C@H]3[C@@H]4CC[C@H]5C[C@@H](O)CC[C@]5(C)[C@H]4CC[C@]3(C)[C@H]1[C@@H]2C,T/C,"endpoint: mean tumor weight, dose: 3.13 mg/kg/injection, schedule: Q01DX011 (sc), vehicle: steriod suspending solution, higher = larger tumour",83 % of control
same,T/C,"endpoint: mean tumor weight, dose: 6.25 mg/kg/injection, schedule: Q01DX011 (sc), vehicle: steriod suspending solution, higher = larger tumour",108 % of control
same,T/C,"endpoint: mean tumor weight, dose: 12.5 mg/kg/injection, schedule: Q01DX011 (sc), vehicle: steriod suspending solution, higher = larger tumour",96 % of control
same,T/C,"endpoint: mean tumor weight, dose: 25.0 mg/kg/injection, schedule: Q01DX011 (sc), vehicle: steriod suspending solution, higher = larger tumour",96 % of control and 105 % of control
same,T/C,"endpoint: mean tumor weight, dose: 50.0 mg/kg/injection, schedule: Q01DX011 (sc), vehicle: steriod suspending solution, higher = larger tumour",119 % of control
same,T/C,"endpoint: mean tumor weight, dose: 100.0 mg/kg/injection, schedule: Q01DX011 (sc), vehicle: steriod suspending solution, higher = larger tumour",117 % of control
same,T/C,"endpoint: mean tumor weight, dose: 200.0 mg/kg/injection, schedule: Q01DX011 (sc), vehicle: steriod suspending solution, higher = larger tumour",110 % of control
same,T/C,"endpoint: mean tumor weight, dose: 400.0 mg/kg/injection, schedule: Q01DX011 (sc), vehicle: steriod suspending solution, higher = larger tumour",93 % of control
CS(=O)(=O)OCC(=O)NCCNC(=O)COS(C)(=O)=O,T/C,"endpoint: mean tumor weight, dose: 25.0 mg/kg/injection, schedule: Q01DX011 (ip), vehicle: saline, higher = larger tumour",98 % of control
same,T/C,"endpoint: mean tumor weight, dose: 50.0 mg/kg/injection, schedule: Q01DX011 (ip), vehicle: saline, higher = larger tumour",90 % of control
same,T/C,"endpoint: mean tumor weight, dose: 100.0 mg/kg/injection, schedule: Q01DX011 (ip), vehicle: saline, higher = larger tumour",94 % of control
same,T/C,"endpoint: mean tumor weight, dose: 200.0 mg/kg/injection, schedule: Q01DX011 (ip), vehicle: saline, higher = larger tumour",82 % of control
